In data set [1] the target is p38 MAPKα (MAPK14) (Homo sapiens (Human), UniProt Q16539). The data set is described as follows: p38 MAPKα enzyme inhibition (Method 2), Z-LYTE FRET. In kind it is biochemical. On the procedure:
(§1) The enzyme inhibitory activities of compounds disclosed herein are determined by FRET using synthetic peptides labelled with both donor and acceptor fluorophores (Z-LYTE, Invitrogen Ltd., Paisley, UK).
The following two assay variants can be used for determination of p38 MAPKα inhibition.
The inhibitory activities of test compounds against the p38 MAPKα isoform (MAPK14: Invitrogen) are evaluated indirectly by determining the level of activation/phosphorylation of the down-stream molecule, MAPKAP-K2. The p38 MAPKα protein (80 ng/mL, 2.5 μL) is mixed with the test compound (2.5 μL of either 4 μg/mL, 0.4 μg/mL, 0.04 μg/mL or 0.004 μg/mL) for 2 hr at RT. […] The mixture is incubated for 1 hr at RT. Development reagent (protease, 5 μL) is added for 1 hr prior to detection in a fluorescence microplate reader (Varioskan® Flash, ThermoFisher Scientific).
This method follows the same steps as Method 1 above, but utilises a higher concentration of the p38 MAPKα protein (2.5 μL of 200 ng/mL protein instead of 2.5 μL of 80 ng/mL protein) for mixing with the test compound (tested at either 1 μg/mL, 0.1 μg/mL, 0.01 μg/mL or 0.001 μg/mL).
(§2) In all cases, the site-specific protease cleaves non-phosphorylated peptide only and eliminates the FRET signal. Phosphorylation levels of each reaction are calculated using the ratio of coumarin emission (donor) over fluorescein emission (acceptor), for which high ratios indicate high phosphorylation and low ratios indicate low phosphorylation levels.

The target of data set [2] is c-Src (Homo sapiens (Human), UniProt P12931). The data set is described as follows: c-Src enzyme inhibition, Z-LYTE FRET. In kind it is biochemical. On the procedure:
as §1
The inhibitory activities of compounds of the invention against c-Src and Syk enzymes (Invitrogen), are evaluated in a similar fashion to that described hereinabove. The relevant enzyme (3000 ng/mL or 2000 ng/mL respectively, 2.5 μL) is incubated with the test compound (either 1 μg/mL, 0.1 μg/mL, 0.01 μg/mL, or 0.001 μg/mL, 2.5 μL each) for 2 hr at RT. The FRET peptides (8 μM, 2.5 μL), and appropriate ATP solutions (2.5 μL, 800 μM for c-Src, and 60 μM ATP for Syk) are then added to the enzymes/compound mixtures and the mixture incubated for 1 hr. Development reagent (protease, 5 μL) is added for 1 hr prior to detection in a fluorescence microplate reader (Varioskan® Flash, ThermoFisher Scientific).
as §2

Data set [3] addresses Syk (Homo sapiens (Human), UniProt P43405). The data set is described as follows: Syk enzyme inhibition, Z-LYTE FRET. In kind it is biochemical. The method, then:
as §1
The relevant enzyme (3000 ng/mL or 2000 ng/mL respectively, 2.5 μL) is incubated with the test compound (either 1 μg/mL, 0.1 μg/mL, 0.01 μg/mL, or 0.001 μg/mL, 2.5 μL each) for 2 hr at RT. The FRET peptides (8 μM, 2.5 μL), and appropriate ATP solutions (2.5 μL, 800 μM for c-Src, and 60 μM ATP for Syk) are then added to the enzymes/compound mixtures and the mixture incubated for 1 hr. Development reagent (protease, 5 μL) is added for 1 hr prior to detection in a fluorescence microplate reader (Varioskan® Flash, ThermoFisher Scientific).
as §2

Data set [4] has as its system Jurkat cells. The data set is described as follows: (r) Cell cytotoxicity assay. In kind it is cell-based, human. Conditions: 24 hours. The method in brief: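 Jurkat cells (1×10^5/well, RPMI + 10% FBS) exposed to compound at 20, 5 or 1 μg/mL final (1.0% DMSO control) for 24 h at 37° C., 5% CO2. Then stained with 7.5 μg/mL propidium iodide for 15 min. % viability = PI-negative cells by flow cytometry, normalized to DMSO.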

A word on the IC50: it is the concentration at which inhibition is half-maximal. Higher therefore signals weaker potency in that assay.

Chain of c-Src (P12931 whole entry, looked up): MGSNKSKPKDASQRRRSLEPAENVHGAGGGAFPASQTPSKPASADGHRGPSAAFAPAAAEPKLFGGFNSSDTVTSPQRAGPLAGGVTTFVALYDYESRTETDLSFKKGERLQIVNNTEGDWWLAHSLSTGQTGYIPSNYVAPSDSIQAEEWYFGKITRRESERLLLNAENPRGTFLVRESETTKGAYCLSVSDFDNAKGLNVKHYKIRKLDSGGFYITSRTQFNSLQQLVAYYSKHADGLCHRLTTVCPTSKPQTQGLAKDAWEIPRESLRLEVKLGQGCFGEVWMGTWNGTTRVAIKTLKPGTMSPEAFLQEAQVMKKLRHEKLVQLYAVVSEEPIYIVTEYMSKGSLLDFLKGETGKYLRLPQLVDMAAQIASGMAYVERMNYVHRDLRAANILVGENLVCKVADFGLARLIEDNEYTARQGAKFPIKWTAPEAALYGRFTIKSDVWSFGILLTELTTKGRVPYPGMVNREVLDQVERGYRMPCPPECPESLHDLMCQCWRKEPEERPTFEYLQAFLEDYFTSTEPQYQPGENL
Chain of p38 MAPKα (MAPK14) (Q16539 whole entry): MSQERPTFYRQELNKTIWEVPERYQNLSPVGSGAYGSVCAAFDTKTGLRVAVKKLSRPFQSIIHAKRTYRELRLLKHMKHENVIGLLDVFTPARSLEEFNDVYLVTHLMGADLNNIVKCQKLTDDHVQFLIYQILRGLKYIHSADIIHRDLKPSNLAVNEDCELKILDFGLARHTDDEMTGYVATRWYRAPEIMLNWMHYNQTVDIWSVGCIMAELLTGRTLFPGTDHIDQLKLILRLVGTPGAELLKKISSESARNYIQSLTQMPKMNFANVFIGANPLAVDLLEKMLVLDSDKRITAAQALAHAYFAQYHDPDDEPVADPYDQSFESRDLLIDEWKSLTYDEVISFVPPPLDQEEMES

Take `COc1cc(Nc2cc(Oc3ccc(NC(=O)Nc4cc(C(C)(C)C)cc(NS(C)(=O)=O)c4OC)c4ccccc34)ccn2)ccc1C(=O)NC[C@H](O)[C@H](O)[C@H](O)CO` [Example 42, 4-((4-((4-(3-(5-(tert-Butyl)-2-methoxy-3-(methylsulfonamido)phenyl)ureido)naphthalen-1-yl)oxy)pyridin-2-yl)amino)-2-methoxy-N-((2S,3S4R)-2,3,4,5-tetrahydroxypentyl)benzamide]: in data set [1], the IC50 stood at 3 nM. Also, in data set [2], half-maximal inhibition (IC50) was put at 21 nM. Further, the midpoint of inhibition in data set [3], the IC50, lay at 88 nM. Also, in data set [4], the “% Viability at 1 μg/mL” value came out at 96.6%, the “% Viability at 5 μg/mL” value came to 91.7% and the “% Viability at 20 μg/mL” value is 21.3%.
On to `COc1cc(Nc2cc(Oc3ccc(NC(=O)Nc4cc(C(C)(C)C)cc(NS(C)(=O)=O)c4OC)c4ccccc34)ccn2)cc(OC)c1C(=O)NCCN(C)C` [Example 39, 4-((4-((4-(3-(5-(tert-Butyl)-2-methoxy-3-(methylsulfonamido)phenyl)ureido)naphthalen-1-yl)oxy)pyridin-2-yl)amino)-N-(2-(dimethylamino)ethyl)-2,6-dimethoxybenzamide], for which the IC50 in data set [1] was found to be 6 nM. The IC50 in data set [2] was found to be 17 nM. Also, it took 257 nM to reach half-maximal inhibition in data set [3] (IC50). In addition, in data set [4], the “% Viability at 1 μg/mL” value was determined as 93.9%, the “% Viability at 5 μg/mL” value was 87.7% and the “% Viability at 20 μg/mL” value turned out to be 1.5%.
Turning to `COc1cc(Nc2cc(Oc3ccc(NC(=O)Nc4cc(C(C)(C)C)cc(NS(C)(=O)=O)c4OC)c4ccccc34)ccn2)ccc1C(=O)NCCN1CCN(C2CC2)CC1` [Example 26, 4-((4-((4-(3-(5-(tert-Butyl)-2-methoxy-3-(methylsulfonamido)phenyl)ureido)naphthalen-1-yl)oxy)pyridin-2-yl)amino)-N-(2-(4-cyclopropylpiperazin-1-yl)ethyl)-2-methoxybenzamide], in data set [1], half-maximal inhibition (IC50) was put at 40 nM. Also, in data set [4], the “% Viability at 1 μg/mL” value is on record as 94.8%, the “% Viability at 5 μg/mL” value is on record as 84.6% and the “% Viability at 20 μg/mL” value was determined as 76.6%.
With `COc1cc(Nc2cc(Oc3ccc(NC(=O)Nc4cc(C(C)(C)C)cc(NS(C)(=O)=O)c4OC)c4ccccc34)ccn2)ccc1S(=O)(=O)N(C)CCCN1CCOCC1` [Example 13, 1-[5-tert-Butyl-3-(methanesulfonamido)-2-methoxy-phenyl]-3-[4-[[2-[3-methoxy-4-[methyl(3-morpholinopropyl)sulfamoyl]anilino]-4-pyridyl]oxy]-1-naphthyl]urea], the IC50 in data set [2] worked out at 150 nM; in data set [3], 809 nM.
Consider `COc1cc(Nc2cc(Oc3ccc(NC(=O)Nc4cc(C(C)(C)C)cc(NS(C)(=O)=O)c4OC)c4ccccc34)ccn2)ccc1C(=O)N(C)CCCN1CCOCC1` [17(af), 4-[[4-[[4-[[5-tert-butyl-3-(methanesulfonamido)-2-methoxy-phenyl]carbamoylamino]-1-naphthyl]oxy]-2-pyridyl]amino]-2-methoxy-N-methyl-N-(3-morpholinopropyl)benzamide], for which the IC50 in data set [1] was found to be 5 nM. Besides, in data set [4], the “% Viability at 1 μg/mL” value came to 96.7%, the “% Viability at 5 μg/mL” value is recorded as 76.2% and the “% Viability at 20 μg/mL” value is listed as 54.1%.
As for `COCCOCCOCCOc1ccc(Nc2cc(Oc3ccc(NC(=O)Nc4cc(C(C)(C)C)cc(NS(C)(=O)=O)c4OC)c4ccccc34)ccn2)cc1C#N` [Example 8, N-(5-(tert-Butyl)-3-(3-(4-((2-((3-cyano-4-(2-(2-(2-methoxyethoxy)ethoxy)ethoxy)phenyl)amino)pyridin-4-yl)oxy)naphthalen-1-yl)ureido)-2-methoxyphenyl)methanesulfonamide], in data set [1], it took 214 nM to reach half-maximal inhibition (IC50).
`COc1cc(Nc2cc(Oc3ccc(NC(=O)Nc4cc(C(C)(C)C)cc(NS(C)(=O)=O)c4OC)c4ccccc34)ccn2)ccc1S(=O)(=O)CCCN1CCOCC1` [Example 20, N-(5-(tert-Butyl)-2-methoxy-3-(3-(4-((2-((3-methoxy-4-((3-morpholinopropyl)sulfonyl)phenyl)-amino)pyridin-4-yl)oxy)naphthalen-1-yl)ureido)phenyl)methanesulfonamide]: the IC50 in data set [2] amounted to 77 nM. In data set [3], this molecule returned an IC50 of 144 nM. Also, in data set [4], the “% Viability at 1 μg/mL” value came out at 104.0%, the “% Viability at 5 μg/mL” value is given as 99.3% and the “% Viability at 20 μg/mL” value was found to be 91.8%.
In data set [2], `COc1cc(Nc2cc(Oc3ccc(NC(=O)Nc4cc(C(C)(C)C)cc(NC(=O)COP(=O)(O)O)c4OC)c4ccccc34)ccn2)ccc1C(=O)NCCN1CC[S+]([O-])CC1` [17(cp), 2-((5-(tert-Butyl)-2-methoxy-3-(3-(4-((2-((3-methoxy-4-((2-(1-oxidothiomorpholino)-ethyl)carbamoyl)phenyl)amino)pyridin-4-yl)oxy)naphthalen-1-yl)ureido)phenyl)amino)-2-oxoethyl dihydrogen phosphate] registered an IC50 of 20 nM. The molecule also showed an IC50 in data set [3] of 393 nM. Further, in data set [4], the “% Viability at 1 μg/mL” value is 97.6%, the “% Viability at 5 μg/mL” value was found to be 96.9% and the “% Viability at 20 μg/mL” value is given as 94.7%.
Turning to `COc1cc(Nc2cc(Oc3ccc(NC(=O)Nc4cc(C(C)(C)C)cc(NS(C)(=O)=O)c4OC)c4ccccc34)ccn2)ccc1S(=O)(=O)N(C)CCN1CCOCC1` [17(o), 1-[5-tert-butyl-3-(methanesulfonamido)-2-methoxy-phenyl]-3-[4-[[2-[3-methoxy-4-[methyl(2-morpholinoethyl)sulfamoyl]anilino]-4-pyridyl]oxy]-1-naphthyl]urea], the IC50 in data set [2] turned out to be 232 nM; in data set [3], 948 nM.
In the case of `COc1cc(Nc2nccc(Oc3ccc(NC(=O)Nc4cc(C(C)(C)C)cc(NS(C)(=O)=O)c4OC)c4ccccc34)n2)ccc1C(=O)NCCOCCOCCO` [17(by), 4-((4-((4-(3-(5-(tert-Butyl)-2-methoxy-3-(methylsulfonamido)phenyl)ureido)naphthalen-1-yl)oxy)pyrimidin-2-yl)amino)-N-(2-(2-(2-hydroxyethoxy)ethoxy)ethyl)-2-methoxybenzamide], in data set [4], the “% Viability at 1 μg/mL” value was 102.4%, the “% Viability at 5 μg/mL” value came to 81.5% and the “% Viability at 20 μg/mL” value is 1.6%.
On to `COc1c(NC(=O)Nc2ccc(Oc3ccnc(Nc4ccc(C(=O)NCCN5CCOCC5)c(N(C)C)c4)c3)c3ccccc23)cc(C(C)(C)C)cc1NS(C)(=O)=O` [Example 21], for which, in data set [2], the concentration for half-maximal inhibition (IC50) is 16 nM. The IC50 in data set [3] is 15 nM. Besides, in data set [4], the “% Viability at 1 μg/mL” value is on record as 101.2%, the “% Viability at 5 μg/mL” value is on record as 82.4% and the “% Viability at 20 μg/mL” value was found to be 77.1%.
For `COc1c(NC(=O)Nc2ccc(Oc3ccnc(Nc4ccc(C(=O)O)c(N(C)C)c4)n3)c3ccccc23)cc(C(C)(C)C)cc1NS(C)(=O)=O` [17(bc), 4-((4-((4-(3-(5-(tert-Butyl)-2-methoxy-3-(methylsulfonamido)phenyl)ureido)naphthalen-1-yl)oxy)pyrimidin-2-yl)amino)-2-(dimethylamino)benzoic acid], in data set [4], the “% Viability at 1 μg/mL” value is listed as 93.9%, the “% Viability at 5 μg/mL” value was 89.2% and the “% Viability at 20 μg/mL” value stood at 10.8%.
Taken in the same sequence, the figures for `COc1cc(Nc2nccc(Oc3ccc(NC(=O)Nc4cc(C(C)(C)C)cc(NS(C)(=O)=O)c4OC)c4ccccc34)n2)ccc1S(N)(=O)=O` [Example 28, 4-((4-((4-(3-(5-(tert-Butyl)-2-methoxy-3-(methylsulfonamido)phenyl)ureido)naphthalen-1-yl)oxy)pyrimidin-2-yl)amino)-2-methoxybenzenesulfonamide] were 100.0%, 41.1% and 18.9%.
